Values belong to the molecule of their own block, whether it stands above or below them.
What was measured:
[1] = in vivo; cited from earlier work
[2] = Stability of urine standard sub-pools measured monthly; format: physicochemical; settings: 2 ml vials stored at -20 degrees Centigrade
Procedure: These sub-pools were aliquoted into 2 ml vials and stored as above.

[3] = Stability of urinary T3 for time and temperature; format: physicochemical
[4] = Stability of synthesized T3-sulfate; format: physicochemical; settings: when not stored in liquid form in appropriate buffer
Description: Bacterial sulfatase (Sigma) was used as directed. We found little evidence of the presence of thyroxine sulfate in urine in our preliminary studies but significant levels of triiodothyronine-sulfate were present. To confirm our data, triodothyronine sulfate was synthesized by methods of Levitz (personal communication) for radioactive estrone glucuronide. T3-sulfate gave a unique spectrum with a major absorption maximum at 362 nm as compared to triiodothyronine whose major absorption maxima occurred at 318.

[5] = Conjugates of T4 and T3 in patients' urine by enzymatic hydrolysis and IMx measurement; design: species or system human
Procedure: Thyroxine glucuronidate in urine was hydrolysed with Sigma bacterial β-glucuronidase. The time interval for hydrolysis was tested from 1 to 24 hours under the conditions recommended by Sigma. It was also hydrolyzed by 0.2 N hydrochloric acid at pH 2 over a period of less than one hour.
Bacterial sulfatase (Sigma) was used as directed. […] To confirm our data, triodothyronine sulfate was synthesized by methods of Levitz (personal communication) for radioactive estrone glucuronide.

[6] = stored with at least 20% (v/v) of buffer

Structure (SMILES): N[C@@H](Cc1ccc(Oc2cc(I)c(O)c(I)c2)c(I)c1)C(=O)O [RT3]
- metabolic clearance rate [1]: 111 L/d/70 kg

Structure (SMILES): N[C@@H](Cc1cc(I)c(Oc2ccc(O)c(I)c2)c(I)c1)C(=O)O [T3, O-(4-hydroxy-3-iodophenyl)-3,5-diiodo-L-tyrosine]
- concentration in urine standard sub-pools over time [2]: unchanged for over a year
- stability of T3 standards ([3]; all conditions of time and temperature): stable under all conditions
- stability of urinary T3, frozen state [3, 6]: stable for months
- stability of urinary T3, room temperature [3, 6]: over 3 days
- stability of urinary T3, native state ([3]; without buffer, frozen and room temperature): deteriorated in both environments at an accelerated rate
- metabolic clearance rate [1]: 24 L/d/70 kg

Structure (SMILES): N[C@@H](Cc1cc(I)c(Oc2ccc(OS(=O)(=O)O)c(I)c2)c(I)c1)C(=O)O [T3-sulfate, triiodothyronine-sulfate]
- stability of T3-sulfate [4]: unstable and rapidly deteriorated
- urinary concentration of conjugate relative to parent compound ([5]; human urine, before and after hydrolysis): about one-third to one-half

- form of conjugation in urine [5]: almost exclusively as a glucuronide
Structure (SMILES): NC(Cc1cc(I)c(Oc2cc(I)c(O)c(I)c2)c(I)c1)C(=O)O (centres unmarked) [T4, O-(4-hydroxy-3,5-didiodophenyl)-3,5-diiodotyrosine]
- metabolic clearance rate [1]: 1.2 L/d/70 kg

From patent US20020076827A1, “Methods for diagnosing thyroid conditions and for monitoring thyroxine therapy” (priority 2000, published 2002)
